Data set [1] has as its system established HT-29 colon cell tumors. The conditions noted are these: mice, every day for 4 doses; cited from earlier work.
Data set [2] has as its system human endothelial cells co-cultured with human fibroblast cells. Kind of data set: Microvessel/tubule formation and disruption assay, TCS CellWorks AngioKit model. The format is cell-based. The note with it: treated on day 11, stained on day 12. Here is the method: To study the effect of Nab-5404 and Nab-5676 on angiogenesis, the compounds were evaluated in a microvessel formation assay using a TCS CellWorks AngioKit model (TCS CellWorks Ltd., Botolph Claydon, Buckingham UK). The AngioKit model uses human endothelial cells co-cultured with other human cells. The endothelial cells initially form small islands within the culture matrix, then begin to proliferate and then enter a migratory phase during which they move through the matrix to form threadlike tubule structures. These gradually join up to form a network of tubules which closely resemble a capillary bed (at day 9-11). The tubules stain positive for von Willebrand's factor, CD31 (PECAM-1) and ICAM-2.
In addition to Nab-5404 and Nab-5676, a known vascular targeting agent, combretastatin 4-phosphate (CA4P), was tested for in vitro anti-angiogenic activity. The TCS CellWorks AngioKit model was used according to the manufacturer's instructions. As outlined above, human endothelial cells were co-cultured with human fibroblast cells in a 24 well plate and exposed to Nab-5404, Nab-5676 or CA4P across a range of concentrations (0.01 to 100 μg/ml). […] The length of the tubules was analyzed using ImagePro software and the IC50 of each compound was calculated using Prism software. […]

The test system of data set [3] is established HT-29 colon cell tumors. Kind of data set: Anti-tumor activity in HT-29 xenograft mouse model. The format is in vivo. The note with it: 100 mg/kg every day for 4 doses, tumors 900 mm^3. The procedure: The anti-tumor activity of Nab-5404 and Nab-5676 was evaluated in a xenograft mouse model. The compounds were tested against established HT-29 colon cell tumors in vivo in two cycles, the first a low-dosage schedule followed by a second high-dosage schedule. Irinotecan was used as a positive control in the study. Mice (n=10) were separated into 8 groups with Nab-5404 and Nab-5676 mice receiving the compounds by intravenous injection. The first cycle consisted of administration of Nab-5404 or Nab-5676 every 3 days for 4 doses for days 0-14 followed by the second cycle which consisted of administration of Nab-5404 or Nab-5676 every 3 days for 4 doses for days 15-30. Irinotecan was administered by intravenous injection at a dose of 60 mg/kg every 3 days for 4 doses. The individual groups are shown in Table 2, wherein 1st cycle refers to days 0-14 and 2nd cycle refers to days 15-30.
Combretastatin 4-phosphate (CA4P) was also administered to HT-29 tumor-bearing mice in a separate experiment. The mice (n=10) were treated once tumors reached 900 mm^3 with either vehicle or CA4P at the reported MTD of 100 mg/kg on a schedule of every day for 4 doses.

Here are results for one molecule from US20080280987A1, “Methods of inhibiting angiogenesis and treating angiogenesis-associated diseases” (priority 2006, published 2008).

≈ marks a conversion by molar mass, not a printed value.

For the molecule `COc1ccc(/C=C\c2cc(OC)c(OC)c(OC)c2)cc1OP(=O)(O)O` [CA4P, combretastatin 4-phosphate], in data set [1], the “Reported MTD” value is listed as 100 mg/kg. Also, the “IC50 disrupting established tubules (tubule length)” value in data set [2] was 3 ng/mL (≈ 7.57 nM). Further, the “Activity in HT-29 tumor model” value in data set [3] is “inactive”.
